According to patent US8722681B2, “N-sulfonyl thiazolylpiperazine derivatives and related N-sulfonyl heterocyclic derivatives for the treatment of neuro degenerative diseases” (NV reMYND, priority 2007, dated 2014):

System: M17-SYNwt cells
Experiment: α-synuclein cytotoxicity assay (LDH leakage from paraquat-treated M17-SYNwt cells)
Assay type: cell-based, human
Conditions: for EC50: M17-SYNwt cells, paraquat 32 mM, 40 hours, LDH activity; for % I (percentage inhibition) / % inh. (percentage inhibition): inhibition of synuclein toxicity at most effective concentration relative to untreated paraquat cells
From the text: An α-synuclein expression plasmid was constructed by sub-cloning the NcoI/XhoI fragment from 212T-SYN(WT) (Griffioen et al., Biochem Biophys Acta (2006) 1762(3):312-318) containing the cDNA of human wild type α-synuclein correspondingly into a standard mammalian expression vector pcDNA3.1 resulting in plasmid pcDNA3.1-SYNwt. Plasmid pcDNA3.1 and pcDNA3.1-SYNwt were transfected to human neuroblastoma cells (ATCC No. CRL-2267) and independent clonal lines with the plasmids stably integrated into the genome were selected. […] Over-expression of α-synuclein in M17-SYNwt cell lines was confirmed by Western analysis.
Due to the high levels of α-synuclein M17-SYNwt cells are exquisitely sensitivity to paraquat, a well-known risk factor of synuclein-dependent neuronal degeneration. In degenerated or dead cells lactate dehydrogenase (LDH) is leaked out of the cells into the extracellular environment due to a loss of plasma-membrane integrity. This principle was used to determine cytotoxicity by quantifying the level of leaked LDH into the growth medium.
The detailed method for determining α-synuclein cytotoxicity was as follows: From appropriate precultures of M17 and M17-SYN cells were seeded at 50000 cells/cm^2 in Optimem Reduced Serum without phenol red (InVitrogen, Cat. 31985-047) supplemented with 5% fetal calf serum, 1 mM sodium pyruvate, 1×non-essential amino acids, 500 μg/ml G418 0.5×antibiotic/antimycotic. After 3 hours of incubation at 37° C./5% CO2 paraquat was added to the cells (final concentration of 32 mM), together with the test compound and the cells were further incubated for 40 hours. Subsequently, LDH activity was determined using Promega Cytotox 96 Non-Radioactive cytotoxicity assay, (Cat. G1780) according the supplier's instructions.
This α-synuclein expressing neuroblastoma cells made it possible to assess the ability of novel compounds to counteract α-synuclein cytotoxicity. […] Since this method monitors leaked LDH from degenerated or dead cells only non-toxic compounds will be identified as active inhibitors of α-synuclein-mediated cytotoxicity. Lack of toxicity is an important characteristic for compounds to be used as a medicament to patients in need. A compound was considered to be active in this test when it inhibits α-synuclein cytotoxicity by more than 25% relative to untreated M17-SYNwt cells at a concentration of 20 μg/mL or lower. In the experiments, the control group consisted of M17-SYNwt cells treated with DMSO, the untreated paraquat group consisted of M17-SYNwt cells treated with paraquat and DMSO, and the treated paraquat group consisted of M17-SYNwt cells treated with paraquat and the test compound dissolved in DMSO.
Percent inhibition was calculated as the synuclein toxicity inhibition by the compound in treated paraquat cells, relative to the synuclein cytotoxicity in untreated paraquat cells.
The compounds from table 1 were screened for activity using the α-synuclein cytotoxicity assay as described above. Dose responses were carried out on all compounds found to be active (10 point curves in duplicate).

COc1ccc(S(=O)(=O)N2CCN(c3nc(-c4ccc(F)cc4)cs3)CC2)cc1 [Compound 1, 1-[4-(4-fluorophenyl)-1,3-thiazol-2-yl]-4-[(4-methoxyphenyl)-sulfonyl]-piperazine]
EC50 (Homo sapiens, Table 1): 24 nM | % I (percentage inhibition) (Table 1): 100%

Cc1ccc(S(=O)(=O)N2CCN(c3nc(-c4ccc(F)cc4)cs3)CC2)cc1 [Compound 2]
EC50 (Homo sapiens, Table 1): 160 nM | % I (percentage inhibition) (Table 1): 70%

CCCc1sc(N2CCN(S(=O)(=O)c3ccc(C)cc3)CC2)nc1-c1ccccc1 [Compound 4]
EC50 (Homo sapiens, Table 1): 203 nM | % I (percentage inhibition) (Table 1): 61%

COc1cccc(-c2csc(N3CCN(S(=O)(=O)c4ccc(F)cc4)CC3)n2)c1 [Compound 5]
EC50 (Homo sapiens, Table 1): 216 nM | % I (percentage inhibition) (Table 1): 90%

O=S(=O)(c1ccc(Cl)cc1)N1CCN(c2nc(-c3ccc(F)cc3)cs2)CC1 [Compound 6]
EC50 (Homo sapiens, Table 1): 300 nM | % I (percentage inhibition) (Table 1): 88%

O=S(=O)(c1ccc(Br)cc1)N1CCN(c2nc(-c3ccc(F)cc3)cs2)CC1 [Compound 7]
EC50 (Homo sapiens, Table 1): 327 nM | % I (percentage inhibition) (Table 1): 94%

O=S(=O)(C1CCCCC1Br)N1CCN(c2nc(-c3ccc(F)cc3)cs2)CC1 (stereo not shown) [Compound 8]
EC50 (Homo sapiens, Table 1): 568 nM | % I (percentage inhibition) (Table 1): 88%

O=S(=O)(c1ccc(F)cc1)N1CCN(c2nc(-c3ccc(F)cc3)cs2)CC1 [Compound 9]
EC50 (Homo sapiens, Table 1): 833 nM | % I (percentage inhibition) (Table 1): 81%

COc1ccc(S(=O)(=O)N2CCN(c3nc(Cc4cccs4)cs3)CC2)cc1 [Compound 10, 1-(4-methoxyphenylsulfonyl)-4-(4-(thiophen-2-ylmethyl)thiazol-2-yl)piperazine]
EC50 (Homo sapiens, Table 2): 12 nM | % inh. (percentage inhibition) (Table 2): 93%

COc1ccc(S(=O)(=O)N2CCN(c3nc(Cc4cccc(C#N)c4)cs3)CC2)cc1 [Compound 12, 3-((2-(4-(4-methoxyphenylsulfonyl)piperazin-1-yl)thiazol-4-yl)methyl)benzonitrile]
EC50 (Homo sapiens, Table 2): 3.2 nM | % inh. (percentage inhibition) (Table 2): 66%

COc1ccc(S(=O)(=O)N2CCN(c3nc(Cc4cccc(F)c4)cs3)CC2)cc1 [Compound 13, 1-(4-(3-fluorobenzyl)thiazol-2-yl)-4-(4-methoxyphenylsulfonyl)piperazine]
EC50 (Homo sapiens, Table 2): 11.5 nM | % inh. (percentage inhibition) (Table 2): 92%

COc1ccc(Cc2csc(N3CCN(S(=O)(=O)c4ccc(OC)cc4)CC3)n2)cc1 [Compound 14, 1-(4-(4-methoxybenzyl)thiazol-2-yl)-4-(4-methoxyphenylsulfonyl)piperazine]
EC50 (Homo sapiens, Table 2): 46.6 nM | % inh. (percentage inhibition) (Table 2): 90%

COc1ccc(S(=O)(=O)N2CCN(c3nc(Cc4ccccc4OC)cs3)CC2)cc1 [Compound 15, 1-(4-(2-methoxybenzyl)thiazol-2-yl)-4-(4-methoxyphenylsulfonyl)piperazine]
EC50 (Homo sapiens, Table 2): 17 nM | % inh. (percentage inhibition) (Table 2): 71%

COc1cccc(Cc2csc(N3CCN(S(=O)(=O)c4ccccc4OC)CC3)n2)c1 [Compound 16, 1-(4-(3-methoxybenzyl)thiazol-2-yl)-4-(2-methoxyphenylsulfonyl)piperazine]
EC50 (Homo sapiens, Table 2): 3590 nM | % inh. (percentage inhibition) (Table 2): 76%

COc1cccc(Cc2csc(N3CCN(S(=O)(=O)c4cccc(OC)c4)CC3)n2)c1 [Compound 17, 1-(4-(3-methoxybenzyl)thiazol-2-yl)-4-(3-methoxyphenylsulfonyl)piperazine]
EC50 (Homo sapiens, Table 2): 4360 nM | % inh. (percentage inhibition) (Table 2): 130%

COc1ccc(S(=O)(=O)N2CCN(c3nc(Cc4ccc5c(c4)OCO5)cs3)CC2)cc1 [Compound 18, 1-(4-(benzo[d][1,3]dioxol-5-ylmethyl)thiazol-2-yl)-4-(4-methoxyphenylsulfonyl)piperazine]
EC50 (Homo sapiens, Table 2): 22.8 nM | % inh. (percentage inhibition) (Table 2): 19%

COc1cccc(Cc2csc(N3CCN(S(=O)(=O)c4ccc5c(c4)OCO5)CC3)n2)c1 [Compound 19, 1-(4-(3-methoxybenzyl)thiazol-2-yl)-4-(benzo[d][1,3]dioxol-5-ylsulfonyl)piperazine]
EC50 (Homo sapiens, Table 2): 251 nM | % inh. (percentage inhibition) (Table 2): 84%

COc1cccc(Cc2csc(N3CCN(S(=O)(=O)c4cccnc4)CC3)n2)c1 [Compound 20, 1-(4-(3-methoxybenzyl)thiazol-2-yl)-4-(pyridin-3-ylsulfonyl)piperazine]
EC50 (Homo sapiens, Table 2): 1720 nM | % inh. (percentage inhibition) (Table 2): 76%

COc1cccc(Cc2csc(N3CCN(S(=O)(=O)c4ccccn4)CC3)n2)c1 [Compound 21, 1-(4-(3-methoxybenzyl)thiazol-2-yl)-4-(pyridin-2-ylsulfonyl)piperazine]
EC50 (Homo sapiens, Table 2): 2440 nM | % inh. (percentage inhibition) (Table 2): 116%

COc1cccc(Cc2csc(N3CCN(S(=O)(=O)c4ccsc4)CC3)n2)c1 [Compound 22, 1-(4-(3-methoxybenzyl)thiazol-2-yl)-4-(thiophen-3-ylsulfonyl)piperazine]
EC50 (Homo sapiens, Table 2): 1000 nM | % inh. (percentage inhibition) (Table 2): 89%

COc1cccc(Cc2csc(N3CCN(S(=O)(=O)c4c(C)n[nH]c4C)CC3)n2)c1 [Compound 23, 1-(4-(3-methoxybenzyl)thiazol-2-yl)-4-(3,5-dimethyl-1H-pyrazol-4-ylsulfonyl)piperazine]
EC50 (Homo sapiens, Table 2): 1290 nM | % inh. (percentage inhibition) (Table 2): 95%

COc1cccc(Cc2csc(N3CCN(S(=O)(=O)c4cccc5c4ccn5C)CC3)n2)c1 [Compound 24, 4-(4-(4-(3-methoxybenzyl)thiazol-2-yl)piperazin-1-ylsulfonyl)-1-methyl-1H-indole]
EC50 (Homo sapiens, Table 2): 1170 nM | % inh. (percentage inhibition) (Table 2): 82%

COc1cccc(Cc2csc(N3CCN(S(=O)(=O)c4cn(C)cn4)CC3)n2)c1 [Compound 26, 1-(4-(3-methoxybenzyl)thiazol-2-yl)-4-(1-methyl-1H-imidazol-4-ylsulfonyl)piperazine]
EC50 (Homo sapiens, Table 2): 870 nM | % inh. (percentage inhibition) (Table 2): 87%

COc1cccc(Cc2csc(N3CCN(S(=O)(=O)c4ccc(NC(C)=O)cc4)CC3)n2)c1 [Compound 27, N-(4-(4-(4-(3-methoxybenzyl)thiazol-2-yl)piperazin-1-ylsulfonyl)phenyl)acetamide]
EC50 (Homo sapiens, Table 2): 250 nM | % inh. (percentage inhibition) (Table 2): 91%

COc1cccc(Cc2csc(N3CCN(S(=O)(=O)c4ccc(C)cc4)CC3)n2)c1 [Compound 28, 1-(4-(3-methoxybenzyl)thiazol-2-yl)-4-tosylpiperazine]
EC50 (Homo sapiens, Table 2): 1890 nM | % inh. (percentage inhibition) (Table 2): 165%

COc1cccc(Cc2csc(N3CCN(S(=O)(=O)c4ccc(C#N)cc4)CC3)n2)c1 [Compound 29, 4-(4-(4-(3-methoxybenzyl)thiazol-2-yl)piperazin-1-ylsulfonyl)benzonitrile]
EC50 (Homo sapiens, Table 2): 1270 nM | % inh. (percentage inhibition) (Table 2): 42%

COc1cccc(Cc2csc(N3CCN(S(=O)(=O)c4ccc(F)cc4)CC3)n2)c1 [Compound 30, 1-(4-(3-methoxybenzyl)thiazol-2-yl)-4-(4-fluorophenylsulfonyl)piperazine]
EC50 (Homo sapiens, Table 2): 405 nM | % inh. (percentage inhibition) (Table 2): 98%

COc1ccc(S(=O)(=O)N2CCC(c3nc(Cc4cccc(OC)c4)cs3)CC2)cc1 [Compound 31, 4-(4-(3-methoxybenzyl)thiazol-2-yl)-1-(4-methoxyphenylsulfonyl)piperidine]
EC50 (Homo sapiens, Table 2): 6.6 nM | % inh. (percentage inhibition) (Table 2): 66%

COc1ccc(S(=O)(=O)N2CCN(Cc3nc(Cc4cccc(OC)c4)cs3)CC2)cc1 [Compound 32, 1-((4-(3-methoxybenzyl)thiazol-2-yl)methyl)-4-(4-methoxyphenylsulfonyl)piperazine]
EC50 (Homo sapiens, Table 2): 159 nM | % inh. (percentage inhibition) (Table 2): 95%

COC(=O)COc1ccc(S(=O)(=O)N2CCN(c3nc(-c4ccc(C)cc4)cs3)CC2)cc1 [Compound 33, Methyl 2-(4-(4-(4-p-tolylthiazol-2-yl)piperazin-1-ylsulfonyl)phenoxy)acetate]
EC50 (Homo sapiens, Table 2): 51.6 nM | % inh. (percentage inhibition) (Table 2): 21%

CC(=O)NCCc1ccc(S(=O)(=O)N2CCN(c3nc(-c4ccccc4)cs3)CC2)cc1 [Compound 34, N-(4-(4-(4-phenylthiazol-2-yl)piperazin-1-ylsulfonyl)phenethyl)acetamide]
EC50 (Homo sapiens, Table 2): 3090 nM | % inh. (percentage inhibition) (Table 2): 46%

COc1cccc(-c2csc(N3CCN(S(=O)(=O)c4ccc(F)cc4)CC3)n2)c1 [Compound 35, 1-(4-fluorophenylsulfonyl)-4-(4-(3-methoxyphenyl)thiazol-2-yl)piperazine]
EC50 (Table 2): 216 nM | % inh. (percentage inhibition) (Table 2): 90%
